The record followed here is US7741314B2, “2-Methylene-(20R,25S)-19,27-Dinor-(22E)-Vitamin D Analogs” (Wisconsin Alumni Research Foundation, priority 2006, dated 2010).

Molecules are shown by their SMILES. Like-named read-outs stand apart in the source and are kept apart here.

For test [1], the system named is vitamin D-deficient rats. Description: Bone calcium mobilization (serum calcium). The test is classed as in vivo, rat. The following applies: FIG. 4. The procedure:
(§1) Male, weanling Sprague-Dawley rats were placed on Diet 11 (0.47% Ca) diet+AEK for one week followed by Diet 11 (0.02% Ca)+AEK for 3 weeks. The rats were then switched to a diet containing 0.47% Ca for one week followed by two weeks on a diet containing 0.02% Ca. Dose administration began during the last week on 0.02% calcium diet. Four consecutive ip doses were given approximately 24 hours apart. Twenty-four hours after the last dose, blood was collected from the severed neck and the concentration of serum calcium determined as a measure of bone calcium mobilization. The first 10 cm of the intestine was also collected for intestinal calcium transport analysis using the everted gut sac method.

Test [2] deals with Human promyelocytic leukemia (HL60) cells. The experiment in a line: HL-60 differentiation (nitro blue tetrazolium reduction). The settings on record: FIG. 2; for EC50: HL-60 cells, four days after treatment, read-out: EC50, HL-60 cell differentiation. The test is classed as cell-based. On the procedure:
The study drugs were dissolved in ethanol and the concentrations determined using UV spectrophotometry. Serial dilutions were prepared so that a range of drug concentrations could be tested without changing the final concentration of ethanol (≦0.2%) present in the cell cultures.
Human promyelocytic leukemia (HL60) cells were grown in RPMI-1640 medium containing 10% fetal bovine serum. The cells were incubated at 37° C. in the presence of 5% CO2.
HL60 cells were plated at 1.2×10^5 cells/ml. Eighteen hours after plating, cells in duplicate were treated with drug. Four days later, the cells were harvested and a nitro blue tetrazolium reduction assay was performed (Collins et al., 1979; J. Exp. Med. 149:969-974). The percentage of differentiated cells was determined by counting a total of 200 cells and recording the number that contained intracellular black-blue formazan deposits. Verification of differentiation to monocytic cells was determined by measuring phagocytic activity (data not shown).

The test system of test [3] is 24-hydroxylase (24Ohase) gene promoter in ROS 17/2.8 (bone) cells. The experiment in a line: In vitro transcription assay (luciferase reporter). The class given is cell-based. The following applies: FIG. 3; for EC50: ROS 17/2.8 cells, 24Ohase promoter-luciferase, 16 h, read-out: EC50, transcriptional activity in bone cells. The procedure:
Transcription activity was measured in ROS 17/2.8 (bone) cells that were stably transfected with a 24-hydroxylase (24Ohase) gene promoter upstream of a luciferase reporter gene (Arbour et al., 1998). Cells were given a range of doses. Sixteen hours after dosing the cells were harvested and luciferase activities were measured using a luminometer.
RLU=relative luciferase units.

Test [4] concerns vitamin D-deficient rats. Description: Intestinal calcium transport (everted gut sac method). The test is classed as in vivo, rat. The following applies: FIG. 5; for intestinal calcium transport: everted gut sac. The procedure: as §1
The target of test [5] is T1, full-length recombinant rat vitamin D receptor (Rattus norvegicus, UniProt P13053).
T1 construct: Full-length recombinant rat receptor was expressed in E. coli; histidine tag (C); made in house; host or cells: E. coli BL21 (DE3) Codon Plus RIL
T1 sequence (P13053 1-423): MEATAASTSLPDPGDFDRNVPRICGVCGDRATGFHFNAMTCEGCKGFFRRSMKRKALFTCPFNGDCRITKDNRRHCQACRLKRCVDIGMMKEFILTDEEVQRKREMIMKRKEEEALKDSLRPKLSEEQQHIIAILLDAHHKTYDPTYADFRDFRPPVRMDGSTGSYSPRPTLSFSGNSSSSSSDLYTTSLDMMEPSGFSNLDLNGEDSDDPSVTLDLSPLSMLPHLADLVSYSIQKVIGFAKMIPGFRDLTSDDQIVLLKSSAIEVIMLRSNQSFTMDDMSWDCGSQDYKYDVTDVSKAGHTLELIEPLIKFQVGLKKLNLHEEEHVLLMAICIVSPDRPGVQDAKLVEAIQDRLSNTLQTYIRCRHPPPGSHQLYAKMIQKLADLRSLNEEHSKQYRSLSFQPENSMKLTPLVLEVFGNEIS
Description: Vitamin D receptor binding, competition with [3H]-1,25(OH)2D3. The following applies: FIG. 1. On the procedure:
Full-length recombinant rat receptor was expressed in E. coli BL21 (DE3) Codon Plus RIL cells and purified to homogeneity using two different column chromatography systems. The first system was a nickel affinity resin that utilizes the C-terminal histidine tag on this protein. The protein that was eluted from this resin was further purified using ion exchange chromatography (S-Sepharose Fast Flow). Aliquots of the purified protein were quick frozen in liquid nitrogen and stored at −80° C. until use. For use in binding assays, the protein was diluted in TEDK50 (50 mM Tris, 1.5 mM EDTA, pH7.4, 5 mM DTT, 150 mM KCl) with 0.1% Chaps detergent. The receptor protein and ligand concentration were optimized such that no more than 20% of the added radiolabeled ligand was bound to the receptor.
Radiolabeled and unlabeled ligands were added to 100 mcl of the diluted protein at a final ethanol concentration of ≦10%, mixed and incubated overnight on ice to reach binding equilibrium. The following day, 100 mcl of hydroxylapatite slurry (50%) was added to each tube and mixed at 10-minute intervals for 30 minutes. The hydroxylapaptite was collected by centrifugation and then washed three times with Tris-EDTA buffer (50 mM Tris, 1.5 mM EDTA, pH 7.4) containing 0.5% Titron X-100. […] Total binding was determined from the tubes containing only radiolabeled ligand.

The term EC50 denotes the concentration needed to bring the measured effect to its halfway point. Broadly, the Ki is the dissociation constant of the complex between target and ligand, obtained from inhibition or displacement.

`C=C1/C(=C\C=C2/CCC[C@]3(C)[C@@H]([C@H](C)CCCC(C)(C)O)CC[C@@H]23)C[C@@H](O)C[C@@H]1O` [1,25(OH)2D3, 1α,25-dihydroxyvitamin D3, reference compound]: in the test with vitamin D-deficient rats [1] (all dosages, rats on low calcium diet (0.02%)), the serum calcium levels entry is reported as “increased serum calcium levels at all dosages”. Further, the EC50 in test [2] was 2 nM; in test [3] it was 0.2 nM. Moreover, the intestinal calcium transport entry in the test with vitamin D-deficient rats [4] (260 pmol/day) is on record as “promotes a significant increase”.
As for `C=C1[C@H](O)CC(=C/C=C2\CCC[C@]3(C)[C@@H]([C@H](C)/C=C/C[C@H](C)O)CC[C@@H]23)C[C@H]1O` [REN, 2-methylene-(20R,25S)-19,27-dinor-(22E)-1α,25-dihydroxyvitamin D3], the “bone calcium mobilization (serum calcium)” value in the test with vitamin D-deficient rats [1] (260 pmol/day ip for 4 consecutive days, rats on low calcium diet (0.02%)) is “did not result in mobilization of bone calcium”; in the test with vitamin D-deficient rats [1] (7020 pmol/day, rats on low calcium diet (0.02%)) it was “without any substantial effect”. The “bone calcium mobilization activity compared to 1,25(OH)2D3” value in the test with vitamin D-deficient rats [1] (in words) is “very little bone calcium mobilization activity”. Also, the concentration giving a half-maximal response (EC50) in test [2] (Homo sapiens, 96 h) was 1 nM; in test [3], 0.1 nM. Besides, the “potency on HL-60 cell differentiation compared to 1,25(OH)2D3” value in test [2] (in words) is given as “as potent as 1,25(OH)2D3”. Further, in test [3] (in words), the “transcriptional activity in bone cells compared to 1α,25-dihydroxyvitamin D3” value is “about the same transcriptional activity”. The intestinal calcium transport entry in the test on vitamin D-deficient rats [4] (260 pmol/day) is recorded as “promotes intestinal calcium transport only slightly”; in the test on vitamin D-deficient rats [4] (7020 pmol/day) it was “significant intestinal calcium transport activity”. Moreover, in the test on vitamin D-deficient rats [4] (in words), the “intestinal calcium transport activity compared to 1,25(OH)2D3” value is “very little activity”. Further, the Ki in test [5] (full-length recombinant rat VDR) is 0.4 nM. The “binding to the receptor compared to 1,25-(OH)2D3” value in test [5] (in words) is given as “bound equally to the receptor”.
